60 molecules from publication PMC9995496, “A screen for MeCP2-TBL1 interaction inhibitors using a luminescence-based assay” (Scientific Reports, 2023) can be followed below.

The assay deals with PRKACA-PRKAR2A interaction (SmBiT-PRKACA / LgBiT-PRKAR2A), protein kinase A. Also on record: NanoLuc complementation counter-screen in cell extract, PRKACA with PRKAR2A, loss of luminescence, detects NanoLuc interference. The following applies: counter-screen for NanoLuc interference, 0.5 h, 20 µM, inhibitor. A general note: A counterscreen serves to expose hits that act by an unwanted route or on another target.

Structures can show the parent of a compound that is named as a salt. Where two headings read alike, the source gives them in different places. Bridge positions count the residues as written; N and C are the ends. Square brackets hold non-standard residues; d marks the D form. Peptide text beside a SMILES is read from it. hArg = N=C(N)NCCCC[C@H](N)C(=O)O; Mpa = O=C(O)CCS

Consider `COc1cc(-c2cc(-c3cccc(O)c3)cnc2N)cc(OC)c1OC` [UM0142474:01, K02288], for which the “Inh (PKA)” value amounted to 26.47%.

In the case of `Cc1cccc(-c2[nH]c(C(C)(C)C)nc2-c2ccc3c(c2)OCO3)n1` [UM0142475:01, SB505124], the “Inh (PKA)” value (Inh (PKA)) came out at 12.17%.

Turning to `COc1cccc2c1C(=O)c1c(O)c3c(c(O)c1C2=O)C[C@@](O)(C(=O)CO)C[C@@H]3O[C@H]1C[C@H](N)[C@H](O[C@@H]2CCCCO2)[C@H](C)O1` [UM0142479:01, Pirarubicin], the “Inh (PKA)” value came out at 33.32%.

For `CC[C@@]1(O)C(=O)OCc2c1cc1n(c2=O)Cc2cc3c(CN(C)C)c(O)ccc3nc2-1` [UM0142480:01, Topotecan HCl], the “Inh (PKA)” value is reported as 19.17%.

For the molecule `CCn1c(N)c(C(=O)NC)c(=O)c2ccc(C#C[C@@](C)(O)COC)nc21` [UM0142483:01, SAR131675], the “Inh (PKA)” value was determined as 0.3639%.

Take `O=C(CSc1nc2c(c(=O)n1-c1ccccc1)SCC2)Nc1ccc(-c2ccccc2)cn1` [UM0142486:01, IWP-L6]: the “Inh (PKA)” value is 23.47%.

With `Cc1cc(-c2ncc(CC(=O)Nc3ccc(-c4cnccn4)cn3)cc2C)ccn1` [UM0142488:01, LGK-974], the “Inh (PKA)” value turned out to be 0.7443%.

In the case of `O=C(O)c1cc2cccc([N+](=O)[O-])c2[nH]1` [UM0142492:01, CRT0044876], the “Inh (PKA)” value amounted to 5.384%.

Regarding `NC(=S)N/N=C/c1ncccc1N` [UM0142496:01, Triapine], the “Inh (PKA)” value is on record as 0.417%.

For `CCCN1CCN(c2ccc(C(=O)NC3(C(=O)NCC#N)CCCCC3)cc2)CC1` [UM0142500:01, Balicatib], the “Inh (PKA)” value is -0.9688%.

As for `CCOC(=O)[C@H](C)C[C@@H](Cc1ccc(-c2ccccc2)cc1)NC(=O)CCC(=O)O` [UM0142501:01, AHU-377 hemicalcium salt], the “Inh (PKA)” value (Inh (PKA)) is 0.8137%.

Consider `CCC(Sc1nnc2c(n1)[nH]c1ccccc12)C(=O)N1c2ccccc2Sc2ccccc21` (stereo not drawn) [UM0142503:01, Inauhzin], for which the “Inh (PKA)” value turned out to be 40.51%.

In the case of `CCCCCCCc1ccc(CCc2cccc(O)c2C(=O)O)cc1` [UM0142505:01, MG 149], the “Inh (PKA)” value came out at 11.49%.

For `CC(C)NCC(O)c1ccc(NS(C)(=O)=O)cc1` (stereo not drawn) [UM0142510:01, Sotalol hydrochloride], the “Inh (PKA)” value is listed as -0.9356%.

Take `O=C(c1ccccc1)c1ccc2n1CCC2C(=O)O` (stereo not drawn) [UM0142511:01, Ketorolac]: for the setting “Inh (PKA)”, the “Inh (PKA)” value was determined as 0.7443%.

On to `COCCCOc1ccnc(C[S+]([O-])c2nc3ccccc3[nH]2)c1C` (stereo not drawn) [UM0142515:01, Rabeprazole], for which the “Inh (PKA)” value is reported as 0.62%.

On to `C#C[C@]1(O)CC[C@H]2[C@@H]3CCC4=CC(=O)CC[C@@H]4[C@H]3C(=C)C[C@@]21CC` [UM0142516:01, Etonogestrel], for which the “Inh (PKA)” value amounted to 8.15%.

On to `CC(C)C(=O)OCC(=O)[C@@]12O[C@H](C3CCCCC3)O[C@@H]1C[C@H]1[C@@H]3CCC4=CC(=O)C=C[C@]4(C)[C@H]3[C@@H](O)C[C@@]12C` [UM0142517:01, Ciclesonide], for which the “Inh (PKA)” value is reported as 3.161%.

Turning to `CC(=O)O[C@H]1Cc2ccccc2N(C(N)=O)c2ccccc21` [UM0142518:01, Eslicarbazepine acetate], the “Inh (PKA)” value was -0.7534%.

Consider `N=C(N)NCCCC[C@@H]1NC(=O)CCSSC[C@@H](C(N)=O)NC(=O)[C@@H]2CCCN2C(=O)[C@H](Cc2c[nH]c3ccccc23)NC(=O)[C@H](CC(=O)O)NC(=O)CNC1=O` [UM0142520:01, Eptifibatide] ([Mpa][hArg]GDWPC-NH2; disulfide 1-7), for which the “Inh (PKA)” value is -0.06094%.

With `COc1cccc(CCc2ccccc2OCC(CN(C)C)OC(=O)CCC(=O)O)c1` (stereo not drawn) [UM0142521:01, Sarpogrelate hydrochloride], the “Inh (PKA)” value turned out to be 4.065%.

Turning to `O=C(O)Cc1ccccc1Nc1c(Cl)cccc1Cl` [UM0142522:01, Diclofenac], the “Inh (PKA)” value (Inh (PKA)) amounted to 9.074%.

On to `O=C1CCCC(=O)C1C(=O)c1ccc(C(F)(F)F)cc1[N+](=O)[O-]` [UM0142524:01, Nitisinone], for which the “Inh (PKA)” value is 2.396%.

Turning to `CC(=O)Nc1ccc(O)cc1` [UM0142525:01, Acetaminophen], the “Inh (PKA)” value is listed as -0.5181%.

On to `O=C(O)c1ccc(N2C(=O)/C(=C\c3ccc(-c4ccc([N+](=O)[O-])cc4)o3)C=C2c2ccccc2)cc1` [UM0142546:01, 4E1RCat], for which the “Inh (PKA)” value was 43.25%.

Take `O=C(COc1ccc(Cl)cc1)N[C@H]1CC[C@H](NC(=O)COc2ccc(Cl)cc2)CC1` [UM0142547:01, ISRIB (trans-isomer)]: the “Inh (PKA)” value is reported as 0.7821%.

With `CCCCN(Cc1ccc(C(=O)NO)cc1)C(=O)Nc1ccccc1` [UM0142549:01, Nexturastat A], the “Inh (PKA)” value was 2.476%.

In the case of `Cc1ccc(CNc2ncnc3ccc(-c4ccc(CO)o4)cc23)o1` [UM0142550:01, ML167], the “Inh (PKA)” value was 10.94%.

With `CC(C)[C@H](N)C(=O)N1CCC[C@H]1B(O)O` [UM0142552:01, Talabostat mesylate], the “Inh (PKA)” value was -1.148%.

For the molecule `CN1CCN(c2ccc(OC(F)(F)F)c(Nc3ncc4c(n3)-c3c(c(C(N)=O)nn3CCO)CC4)c2)CC1` [UM0142553:01, NMS-1286937], the “Inh (PKA)” value was 23.22%.

Take `Cc1c(F)cc(C(=O)NC2CC2)cc1-c1ccc(C(=O)NCC(C)(C)C)cn1` [UM0142557:01, Losmapimod]: the “Inh (PKA)” value stood at 0.7266%.

With `Cc1ccc2nc(NCCN)c3ncc(C)n3c2c1` [UM0142559:01, BMS-345541(free base)], the “Inh (PKA)” value is 1.467%.

Turning to `O=C(NCc1cccc(O)c1)c1cc2cc(F)ccc2[nH]1` [UM0142568:01, KX1-004], the “Inh (PKA)” value turned out to be 5.75%.

Take `CN(C)c1cccc(-c2c3c(=O)n(-c4ccccc4Cl)[nH]c3cc(=O)n2C)c1` [UM0142578:01, GKT137831]: the “Inh (PKA)” value is 41.79%.

Turning to `CN(CC(=O)N(Cc1ccc(C2CCCCC2)cc1)c1ccc(C(=O)O)cc1)S(=O)(=O)c1c(F)c(F)c(F)c(F)c1F` [UM0142580:01, SH-4-54], the “Inh (PKA)” value came out at 8.361%.

As to `O=S(=O)(CC1CS1)c1ccc(Oc2ccccc2)cc1` (stereo not drawn) [UM0142583:01, SB-3CT], the “Inh (PKA)” value was determined as 17.13%.

As for `CN(C)CCCNC(=O)c1ccc(-c2cc(O)c3ncccc3c2)cc1` [UM0142607:01, ML324], the “Inh (PKA)” value is 3.619%.

For the molecule `N=C1NC(=O)/C(=C/c2ccc(O)cc2)S1` [UM0142634:01, Mirin], the “Inh (PKA)” value was 13.24%.

Take `CC(=O)O/N=C1/C(c2c(O)[nH]c3cc(Br)ccc23)=Nc2ccccc21` [UM0142638:01, BIO-acetoxime]: the “Inh (PKA)” value came to 40.08%.

`O=S(=O)(N=Cc1c(O)ccc2ccccc12)c1cccs1` [UM0142640:01, STF 083010]: the “Inh (PKA)” value was found to be 10.66%.

With `O=C(Nc1cccnc1)c1cc(-c2ccnc(F)c2)ccc1OCc1ccccc1` [UM0142641:01, GSK2578215A], the “Inh (PKA)” value is 10.96%.

As to `Cc1cc(C)c(S(=O)(=O)n2cc(C)cc2C)c(C)c1` [UM0142646:01, HJC 0350], the “Inh (PKA)” value came out at 24.94%.

Regarding `N[C@@H](CCNCc1ccc(Cl)cc1)C(=O)N1CCCCC1` [UM0142648:01, UAMC 00039 dihydrochloride], the “Inh (PKA)” value was -0.6597%.

On to `Cn1cc(-c2ccc(F)c(C(F)(F)F)c2)nc1C1CCN(c2ncnc3[nH]ncc23)CC1` [UM0142649:01, LY2584702], for which the “Inh (PKA)” value was determined as 26.28%.

`CS(=O)(=O)c1ccc(-c2nnc(/C=C/c3nnc(-c4ccc(C#N)cc4)o3)n2-c2ccccc2Cl)nc1` [UM0142653:01, G007-LK]: the “Inh (PKA)” value was 3.502%.

On to `Cc1cc(C)c(CNC(=O)c2cc(-c3ccc(N4CCN(C)CC4)nc3)cc3c2c(C)cn3C(C)C)c(=O)[nH]1` [UM0142656:01, GSK503], for which the “Inh (PKA)” value turned out to be 4.717%.

With `C=CC(=O)Nc1cc(Nc2nccc(-c3c[nH]c4ccccc34)n2)c(OC)cc1N(C)CCN(C)C` [UM0142657:01, AZ5104], the “Inh (PKA)” value is given as 4.603%.

Turning to `CN(C)S(=O)(=O)c1ccc2c(c1)/C(=C/c1cc3c([nH]1)CCCC3)C(=O)N2` [UM0142659:01, SU6656], the “Inh (PKA)” value is 52.64%.

Take `Nc1nc(NC2CC2)cc(-c2cccc(Cl)c2Cl)n1` [UM0142662:01, TH588]: the “Inh (PKA)” value turned out to be 10.71%.

Turning to `Cc1cn(-c2cc(NC(=O)c3ccc(C)c(Nc4nccc(-c5cnccn5)n4)c3)cc(C(F)(F)F)c2)cn1` [UM0142663:01, Radotinib(IY-5511)], the “Inh (PKA)” value is given as 10.62%.

Take `CNc1cc(-c2cccc(Cl)c2Cl)nc(N)n1` [UM0142665:01, TH287]: the “Inh (PKA)” value turned out to be 9.555%.

Take `FC(F)(F)Oc1ccc(-c2ccc3nnc(C(F)(F)F)n3c2)cc1` [UM0142666:01, GS967]: the “Inh (PKA)” value is listed as 6.579%.

As for `CN1CCN(c2ccc(C(=O)Nc3n[nH]c4ccc(Cc5cc(F)cc(F)c5)cc34)c(NC3CCOCC3)c2)CC1` [UM0142673:01, Entrectinib], the “Inh (PKA)” value is listed as 20.65%.

For the molecule `CNC(=O)c1c(C)oc2cc(Oc3ncnc4cc(OC)c(OC)cc34)ccc12` [UM0142676:01, Fruquintinib(HMPL-013)], the “Inh (PKA)” value stood at 4.605%.

As for `O=C(Nc1ccc2[nH]nc(-c3ccncc3)c2c1)[C@@H]1CCN(CC(=O)N2CCN(c3ccc(-c4ncccn4)cc3)CC2)C1` [UM0142677:01, SCH772984 HCl], for the setting “Inh (PKA)”, the “Inh (PKA)” value is 18.36%.

As for `Cc1ccc2nc(N)[nH]c(=O)c2c1Sc1ccncc1` [UM0142685:01, Nolatrexed (AG-337)], the “Inh (PKA)” value is given as 7.912%.

Regarding `CC#CC(=O)Nc1ccc2ncnc(Nc3cccc(Br)c3)c2c1` [UM0142687:01, CL-387785 (EKI-785)], the “Inh (PKA)” value was 17.86%.

Consider `O=C(O)C(=O)c1cn(Cc2ccccc2)c2ccc(-c3ccc(OC(F)(F)F)cc3)cc12` [UM0142688:01, Tiplaxtinin(PAI-039)], for which the “Inh (PKA)” value was 36.69%.

With `Nc1ccc(/C=C/C(=O)NCc2cc3cc(-c4ccc(C(=O)N5CCC(F)(F)CC5)cc4)cc(-c4ccc(F)cc4)c3o2)cn1` [UM0142694:01, KPT-9274], the “Inh (PKA)” value is 5.106%.

Take `N#CC(c1ccnc(NCCc2cccnc2)n1)c1nc2ccccc2s1` (stereo not drawn) [UM0142696:01, AS601245]: the “Inh (PKA)” value was 54.87%.
